Measurements reported in PubChem BioAssay AID248 (DTP/NCI, 2004).
Several values for one entry are separate records, joined by “and”; a condition that tells them apart may be missing. Equal values may be shown once. Toxic doses and inconclusive results are not listed.

Test system: L1210 leukemia ip in BDF1 mice, survival T/C
Assay: NCI In Vivo Anticancer Drug Screen. Data for tumor model L1210 Leukemia (intraperitoneal) in B6D2F1 (BDF1) mice
Conditions: endpoint: mean survival time, higher = longer survival
Summary of the method: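 Each compound was tested against a transplantable tumor grown in mice. The endpoint was survival, with treated animals benchmarked against vehicle controls as a simple ratio.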

[1] = dose: 50.0 mg/kg/injection, schedule: Q04DX003 (ip), vehicle: saline
[2] = dose: 100.0 mg/kg/injection, schedule: Q04DX003 (ip), vehicle: saline
[3] = dose: 200.0 mg/kg/injection, schedule: Q04DX003 (ip), vehicle: saline
[4] = dose: 2.5 mg/kg/injection, schedule: Q01DX001 (ip), vehicle: saline
[5] = dose: 100.0 mg/kg/injection, schedule: Q01DX001 (ip), vehicle: Klucel (hydroxypropylcellulose) (HPC)
[6] = dose: 100.0 mg/kg/injection, schedule: Q01DX009 (ip), vehicle: Klucel (hydroxypropylcellulose) (HPC)
[7] = dose: 100.0 mg/kg/injection, schedule: Q04DX003 (ip), vehicle: Klucel (hydroxypropylcellulose) (HPC)
[8] = dose: 100.0 mg/kg/injection, schedule: Q04DX002 (ip), vehicle: saline with Tween-80
[9] = dose: 200.0 mg/kg/injection, schedule: Q04DX002 (ip), vehicle: saline with Tween-80
[10] = dose: 100.0 mg/kg/injection, schedule: Q01DX001 (ip), vehicle: carboxymethylcellulose (CMC)
[11] = dose: 200.0 mg/kg/injection, schedule: Q01DX001 (ip), vehicle: carboxymethylcellulose (CMC)
[12] = dose: 200.0 mg/kg/injection, schedule: Q01DX009 (ip), vehicle: Klucel (hydroxypropylcellulose) (HPC)
[13] = dose: 400.0 mg/kg/injection, schedule: Q01DX001 (ip), vehicle: carboxymethylcellulose (CMC)
[14] = dose: 400.0 mg/kg/injection, schedule: Q01DX009 (ip), vehicle: Klucel (hydroxypropylcellulose) (HPC)
[15] = dose: 400.0 mg/kg/injection, schedule: Q04DX003 (ip), vehicle: saline
[16] = dose: 100.0 mg/kg/injection, schedule: Q01DX009 (ip), vehicle: saline with Tween-80
[17] = dose: 200.0 mg/kg/injection, schedule: Q01DX009 (ip), vehicle: saline with Tween-80
[18] = dose: 400.0 mg/kg/injection, schedule: Q01DX009 (ip), vehicle: saline with Tween-80

In the case of `CC(C)=NOC(C)C(=O)O` (stereo not given), the T/C (dose: 50.0 mg/kg/injection, schedule: Q01DX009 (ip), vehicle: saline) is reported as 94 % of control and 101 % of control, the T/C [1] is reported as 95 % of control and the T/C (dose: 75.0 mg/kg/injection, schedule: Q01DX001 (ip), vehicle: saline) is reported as 101 % of control and 98 % of control. For the same compound, the T/C (dose: 100.0 mg/kg/injection, schedule: Q01DX009 (ip), vehicle: saline) was 91 % of control and 97 % of control, the T/C [2] was 100 % of control and 98 % of control and the T/C (dose: 150.0 mg/kg/injection, schedule: Q01DX001 (ip), vehicle: saline) was 103 % of control and 106 % of control. The T/C (dose: 200.0 mg/kg/injection, schedule: Q01DX009 (ip), vehicle: saline) was 92 % of control and 103 % of control, the T/C [3] was 97 % of control and 95 % of control and the T/C (dose: 300.0 mg/kg/injection, schedule: Q01DX001 (ip), vehicle: saline) was 114 % of control.

With `CC1=CC23C(COC(=O)C24CO4)C(C(=O)O)=CC3C1C` (stereo not given) (tested in a mixture with another compound) the T/C (dose: 1.2 mg/kg/injection, schedule: Q01DX001 (ip), vehicle: saline) was 101 % of control and the T/C [4] was 100 % of control.

`CCOC(=O)c1[nH]c(C(=O)O)c(CCC(=O)OC)c1C` was tested, and the T/C (dose: 50.0 mg/kg/injection, schedule: Q01DX009 (ip), vehicle: Klucel (hydroxypropylcellulose) (HPC)) was 110 % of control, the T/C [5] was 93 % of control and the T/C [6] was 90 % of control. The T/C (dose: 200.0 mg/kg/injection, schedule: Q01DX001 (ip), vehicle: Klucel (hydroxypropylcellulose) (HPC)) was 98 % of control, the T/C (dose: 300.0 mg/kg/injection, schedule: Q01DX009 (ip), vehicle: Klucel (hydroxypropylcellulose) (HPC)) was 100 % of control and the T/C (dose: 400.0 mg/kg/injection, schedule: Q01DX001 (ip), vehicle: Klucel (hydroxypropylcellulose) (HPC)) was 97 % of control.

With `NC(=O)CC(NC(=O)C(F)(F)F)C(=O)O` (stereo not given) the T/C (dose: 100.0 mg/kg/injection, schedule: Q04DX003 (ip), vehicle: carboxymethylcellulose (CMC)) was 98 % of control, the T/C (dose: 200.0 mg/kg/injection, schedule: Q04DX003 (ip), vehicle: carboxymethylcellulose (CMC)) was 98 % of control and the T/C (dose: 400.0 mg/kg/injection, schedule: Q04DX003 (ip), vehicle: carboxymethylcellulose (CMC)) was 88 % of control.

`O=C(Nc1ccc2cc(S(=O)(=O)O)ccc2c1)c1ccc(N=Nc2c(S(=O)(=O)O)cc3cc(S(=O)(=O)O)cc(NC(=O)c4ccccc4)c3c2O)cc1` was tested, and the T/C (dose: 25.0 mg/kg/injection, schedule: Q01DX001 (ip), vehicle: Klucel (hydroxypropylcellulose) (HPC)) was 93 % of control, the T/C (dose: 25.0 mg/kg/injection, schedule: Q01DX009 (ip), vehicle: other) was 108 % of control and the T/C (dose: 25.0 mg/kg/injection, schedule: Q04DX003 (ip), vehicle: Klucel (hydroxypropylcellulose) (HPC)) was 95 % of control. For the same compound, the T/C (dose: 50.0 mg/kg/injection, schedule: Q01DX001 (ip), vehicle: Klucel (hydroxypropylcellulose) (HPC)) was 88 % of control, the T/C (dose: 50.0 mg/kg/injection, schedule: Q01DX009 (ip), vehicle: other) was 102 % of control and the T/C (dose: 50.0 mg/kg/injection, schedule: Q04DX003 (ip), vehicle: Klucel (hydroxypropylcellulose) (HPC)) was 98 % of control. The T/C [5] was 92 % of control, the T/C (dose: 100.0 mg/kg/injection, schedule: Q01DX009 (ip), vehicle: other) was 97 % of control and the T/C [7] was 101 % of control. The T/C (dose: 100.0 mg/kg/injection, schedule: Q04DX003 (ip), vehicle: saline with Tween-80) was 104 % of control, the T/C (dose: 150.0 mg/kg/injection, schedule: Q01DX009 (ip), vehicle: other) was 89 % of control and the T/C (dose: 200.0 mg/kg/injection, schedule: Q04DX003 (ip), vehicle: saline with Tween-80) was 91 % of control.

For `CCOC(=O)c1ccc(N=C2C(C)(C)C(=Nc3ccc(C(=O)OCC)cc3)C2(C)C)cc1`, the T/C [8] was 93 % of control, the T/C [9] was 87 % of control and the T/C (dose: 400.0 mg/kg/injection, schedule: Q04DX002 (ip), vehicle: saline with Tween-80) was 87 % of control.

`c1ccc(CNCCNCc2ccccn2)nc1` was tested, and the T/C (dose: 1.25 mg/kg/injection, schedule: Q04DX002 (ip), vehicle: saline) was 106 % of control, the T/C (dose: 2.5 mg/kg/injection, schedule: Q04DX002 (ip), vehicle: saline) was 113 % of control and the T/C (dose: 5.0 mg/kg/injection, schedule: Q04DX002 (ip), vehicle: saline) was 106 % of control. For the same compound, the T/C (dose: 10.0 mg/kg/injection, schedule: Q04DX002 (ip), vehicle: saline) was 102 % of control.

`COc1ccc(C2=CCCC2)cc1` was tested, and the T/C [10] was 91 % of control, the T/C [6] was 89 % of control and the T/C [7] was 96 % of control. The T/C [11] was 94 % of control, the T/C [12] was 102 % of control and the T/C (dose: 200.0 mg/kg/injection, schedule: Q04DX003 (ip), vehicle: Klucel (hydroxypropylcellulose) (HPC)) was 101 % of control. For the same compound, the T/C [13] was 96 % of control, the T/C [14] was 89 % of control and the T/C (dose: 400.0 mg/kg/injection, schedule: Q04DX003 (ip), vehicle: Klucel (hydroxypropylcellulose) (HPC)) was 102 % of control.

`O=NN(CCF)C(=O)NCCF` was tested, and the T/C (dose: 1.25 mg/kg/injection, schedule: Q01DX001 (ip), vehicle: saline) was 113 % of control, the T/C (dose: 1.75 mg/kg/injection, schedule: Q01DX001 (ip), vehicle: saline) was 118 % of control and the T/C (dose: 2.0 mg/kg/injection, schedule: Q01DX001 (ip), vehicle: saline) was 116 % of control. The T/C [4] was 118 % of control, the T/C (dose: 3.5 mg/kg/injection, schedule: Q01DX001 (ip), vehicle: saline) was 161 % of control and the T/C (dose: 5.0 mg/kg/injection, schedule: Q01DX001 (ip), vehicle: saline) was 156 % of control. For the same compound, the T/C (dose: 6.0 mg/kg/injection, schedule: Q01DX001 (ip), vehicle: saline) was 242 % of control, the T/C (dose: 7.0 mg/kg/injection, schedule: Q01DX001 (ip), vehicle: saline) was 316 % of control and the T/C (dose: 8.0 mg/kg/injection, schedule: Q01DX001 (ip), vehicle: saline) was 201 % of control. The T/C (dose: 12.0 mg/kg/injection, schedule: Q01DX001 (ip), vehicle: saline) was 312 % of control and 333 % of control and the T/C (dose: 18.0 mg/kg/injection, schedule: Q01DX001 (ip), vehicle: saline) was 322 % of control.

In the case of `COc1ccc(C(O)c2c(CN3CCCCC3)c3ccccc3n2C)cc1` (stereo not given), the T/C [8] is reported as 100 % of control and the T/C [9] is reported as 97 % of control.

In the case of `O=c1ccc2cc(Cl)ccc2o1`, the T/C (dose: 50.0 mg/kg/injection, schedule: Q01DX001 (ip), vehicle: carboxymethylcellulose (CMC)) is reported as 98 % of control, the T/C [10] is reported as 98 % of control and the T/C [11] is reported as 93 % of control. For the same compound, the T/C [13] was 98 % of control.

For `O=C(Nc1ccccc1Cl)OCCOc1ccccc1`, the T/C [6] was 97 % of control, the T/C [12] was 97 % of control and the T/C [14] was 94 % of control.

In the case of `CCCCNC(=O)C1C2CC3OC(=O)C1C3C2` (stereo not given), the T/C (dose: 12.5 mg/kg/injection, schedule: Q04DX003 (ip), vehicle: saline) is reported as 89 % of control, the T/C (dose: 25.0 mg/kg/injection, schedule: Q04DX003 (ip), vehicle: saline) is reported as 95 % of control and the T/C [1] is reported as 100 % of control. The T/C [2] was 95 % of control, the T/C [3] was 98 % of control and the T/C [15] was 101 % of control.

For `COC(=O)CCC(=O)c1cccc2ccccc12`, the T/C (dose: 100.0 mg/kg/injection, schedule: Q04DX003 (ip), vehicle: acetone) was 91 % of control, the T/C (dose: 200.0 mg/kg/injection, schedule: Q04DX003 (ip), vehicle: acetone) was 96 % of control and the T/C (dose: 400.0 mg/kg/injection, schedule: Q04DX003 (ip), vehicle: acetone) was 95 % of control.

In the case of `CC(=O)OC(CNCC(=O)O)C(Cl)(Cl)Cl` (stereo not given), the T/C [16] is reported as 90 % of control, the T/C [17] is reported as 95 % of control and the T/C [18] is reported as 97 % of control.

In the case of `CC(=O)OC1CCC2(C)C3CCC4(C)C(CC5OC54C(C)=O)C3CC3OC32C1` (stereo not given), the T/C (dose: 50.0 mg/kg/injection, schedule: Q01DX001 (sc), vehicle: steriod suspending solution) is reported as 97 % of control, the T/C (dose: 100.0 mg/kg/injection, schedule: Q01DX001 (sc), vehicle: steriod suspending solution) is reported as 101 % of control and the T/C (dose: 200.0 mg/kg/injection, schedule: Q01DX001 (sc), vehicle: steriod suspending solution) is reported as 106 % of control. For the same compound, the T/C (dose: 400.0 mg/kg/injection, schedule: Q01DX001 (sc), vehicle: steriod suspending solution) was 113 % of control.

For `O=C(CCCCC(=O)N(CCO)CCO)N(CCO)CCO`, the T/C [2] was 102 % of control, the T/C [3] was 100 % of control and the T/C [15] was 102 % of control.

For `CC(=O)Nc1ccc(/C=N/NC(=O)CC2CCCCC2)cc1`, the T/C [16] was 88 % of control, the T/C [17] was 93 % of control and the T/C [18] was 100 % of control.
